Data from patent US20250129027A1 (APOGEE PHARMACEUTICALS, INC., priority 2023, published 2025).

Assays:
human recombinant MAGL = human recombinant MAGL (Homo sapiens (Human), UniProt Q99685); assay: In vitro inhibition of MAGL activity (inhibitor screening kit, 4-nitrophenylacetate); assay type: biochemical; conditions: for IC50: human recombinant MAGL
How it was run: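 Colorimetric kit assay: recombinant human MAGL hydrolyses 4-nitrophenylacetate to 4-nitrophenol, read by absorbance at 405-412 nm. Inhibition given as percentage of signal in treated versus untreated MAGL control.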

human recombinant FAAH = human recombinant FAAH (Homo sapiens (Human), UniProt O00519); assay: In vitro inhibition of FAAH activity (fluorescent inhibitor screening kit, AMC arachidonoyl amide); assay type: biochemical; conditions: human recombinant FAAH; read-out: Inhibition on FAAH activity (IC50)
How it was run: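 Fluorogenic kit assay: AMC arachidonoyl amide is cleaved by human recombinant FAAH, read at 340-360/450-465 nm. Percent inhibition versus non-treated control; IC50 values derived from multiple compound concentrations where tested.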

Sequence of human recombinant FAAH (O00519 whole entry): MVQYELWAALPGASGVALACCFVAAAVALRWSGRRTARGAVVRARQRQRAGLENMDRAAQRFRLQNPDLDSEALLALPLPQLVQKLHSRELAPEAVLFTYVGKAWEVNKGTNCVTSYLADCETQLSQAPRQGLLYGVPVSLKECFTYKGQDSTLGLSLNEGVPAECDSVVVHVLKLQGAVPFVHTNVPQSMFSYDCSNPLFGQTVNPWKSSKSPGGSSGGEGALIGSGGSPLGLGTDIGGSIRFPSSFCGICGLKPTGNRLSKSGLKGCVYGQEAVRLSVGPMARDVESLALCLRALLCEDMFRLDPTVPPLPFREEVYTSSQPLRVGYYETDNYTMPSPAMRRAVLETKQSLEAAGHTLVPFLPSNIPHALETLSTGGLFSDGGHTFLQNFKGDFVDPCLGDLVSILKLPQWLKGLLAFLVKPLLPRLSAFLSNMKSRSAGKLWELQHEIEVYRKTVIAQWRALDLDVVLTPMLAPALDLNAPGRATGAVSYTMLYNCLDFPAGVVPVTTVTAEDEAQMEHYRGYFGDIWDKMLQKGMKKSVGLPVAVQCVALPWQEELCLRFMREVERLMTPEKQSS
Sequence of human recombinant MAGL (Q99685 whole entry): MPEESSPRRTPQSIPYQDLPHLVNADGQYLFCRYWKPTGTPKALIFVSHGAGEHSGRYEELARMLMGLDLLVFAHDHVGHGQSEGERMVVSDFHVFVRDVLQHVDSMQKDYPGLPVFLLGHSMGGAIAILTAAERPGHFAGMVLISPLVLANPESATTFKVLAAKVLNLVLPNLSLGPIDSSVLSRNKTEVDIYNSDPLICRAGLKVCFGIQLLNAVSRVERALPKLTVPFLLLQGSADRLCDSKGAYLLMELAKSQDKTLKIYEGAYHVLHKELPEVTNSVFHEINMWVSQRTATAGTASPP

Row | Structure (SMILES) | IC50 (human recombinant MAGL) | IC50 (human recombinant FAAH) | fold-selectivity over MAGL (selectivity index) (human recombinant MAGL; FAAH over MAGL)
1 | O=C(NC1CCCC1)Oc1cccc(-c2cncc(-c3nccs3)c2)c1 [Example 118, 3-(5-(thiazol-2-yl)pyridin-3-yl)phenyl cyclopentylcarbamate] | > 10000 nM | ~100 nM | 
2 | COc1ccc(OC(=O)NCC2CCCCC2)cc1-c1cncc(-c2ccno2)c1 [Example 110, 3-(5-(isoxazol-5-yl)pyridin-3-yl)-4-methoxyphenyl (cyclohexylmethyl)carbamate] | ~10000 nM | 10 to 100 nM | 
3 | O=C(Nc1cnccc1Cl)N1CCN(Cc2ccc3c(c2)OC(F)(F)O3)CC1 [JNJ-42165279, reference compound] | > 50000 nM | 106 nM | 473 times
4 | COc1ccc(OC(=O)NCc2ccccc2)cc1-c1cncc(-c2nnn[nH]2)c1 [Example 252, 3-(5-(1H-tetrazol-5-yl)pyridin-3-yl)-4-methoxyphenyl benzylcarbamate] | > 10000 nM | > 1000 nM | 
5 | O=C(NC1CCCCC1)Oc1cc(O)cc(-c2cncc(-c3nnco3)c2)c1 [Example 164, 3-(5-(1,3,4-oxadiazol-2-yl)pyridin-3-yl)-5-hydroxyphenyl cyclohexylcarbamate] | > 50000 nM | 10 to 100 nM | 
6 | O=C(Oc1cccc(-c2cncc(-c3nnco3)c2)c1)N1CCC2(CC1)COC2 [Example 153, 3-(5-(1,3,4-oxadiazol-2-yl)pyridin-3-yl)phenyl 2-oxa-7-azaspiro[3.5]nonane-7-carboxylate] | > 10000 nM | 1000 to 10000 nM | 
7 | Cc1ccc(-c2cncc(-c3ncco3)c2)cc1OC(=O)NC1CCC(C)CC1 (centres unmarked) [Example 96, 2-methyl-5-(5-(oxazol-2-yl)pyridin-3-yl)phenyl (4-methylcyclohexyl)carbamate] | > 10000 nM | > 1000 nM | 
8 | CCCCCCCNC(=O)Oc1cccc(-c2cncc(C(=O)OCC)c2)c1 [Example 2, ethyl 5-(3-((heptylcarbamoyl)oxy)phenyl)nicotinate] | 1000 to 10000 nM | 10 to 100 nM | 
9 | COc1ccc(OC(=O)NC2CCCCC2)cc1-c1cncc(-c2ccno2)c1 [Example 113, 3-(5-(isoxazol-5-yl)pyridin-3-yl)-4-methoxyphenyl cyclohexylcarbamate] | > 10000 nM | ~100 nM | 
10 | COc1ccc(OC(=O)NC2CCCCC2)cc1-c1cncc(-c2ccc[nH]2)c1 [Example 45, 3-(5-(1H-pyrrol-2-yl)pyridin-3-yl)-4-methoxyphenyl cyclohexylcarbamate] | > 10000 nM | > 1000 nM | 
11 | O=C(NCC1CCCCC1)Oc1cccc(-c2cncc(-c3nnn[nH]3)c2)c1 [Example 239, 3-(5-(1H-tetrazol-5-yl)pyridin-3-yl)phenyl (cyclohexylmethyl)carbamate] | > 10000 nM | > 1000 nM | 
12 | CCCCCCCCNC(=O)Oc1ccc(N(C)C)c(-c2cncc(-c3nnco3)c2)c1 [Example 180, 3-(5-(1,3,4-oxadiazol-2-yl)pyridin-3-yl)-4-(dimethylamino)phenyl octylcarbamate] | > 10000 nM | 10 to 100 nM | 
13 | CN(C(=O)Oc1cccc(-c2cncc(-c3nnco3)c2)c1)C1CCCCC1 [Example 142, 3-(5-(1,3,4-oxadiazol-2-yl)pyridin-3-yl)phenyl cyclohexyl(methyl)carbamate] | > 10000 nM | 1000 to 10000 nM | 
14 | O=C(Nc1cccc2ccccc12)Oc1cccc(-c2cncc(-c3nnco3)c2)c1 [Example 140, 3-(5-(1,3,4-oxadiazol-2-yl)pyridin-3-yl)phenyl naphthalen-1-ylcarbamate] | > 50000 nM | > 100 nM | 
15 | COc1cc(OC(=O)NC2CCCCC2)cc(-c2cncc(-c3nnco3)c2)c1 [Example 178, 3-(5-(1,3,4-oxadiazol-2-yl)pyridin-3-yl)-5-methoxyphenyl cyclohexylcarbamate] | > 10000 nM | ~100 nM | 
16 | O=C(NCC1CCCCC1)Oc1cccc(-c2cncc(-c3ccc[nH]3)c2)c1 [Example 36, 3-(5-(1H-pyrrol-2-yl)pyridin-3-yl)phenyl (cyclohexylmethyl)carbamate] | ~10000 nM | 100 to 1000 nM | 
17 | O=C(NC1CCCCC1)Oc1cccc(-c2cncc(-c3nnco3)c2)c1 [Example 139, 3-(5-(1,3,4-oxadiazol-2-yl)pyridin-3-yl)phenyl cyclohexylcarbamate] | > 50000 nM | 10 to 100 nM | 
18 | COc1cc(OC(=O)NCc2ccccc2)cc(-c2cncc(-c3nnco3)c2)c1 [Example 176, 3-(5-(1,3,4-oxadiazol-2-yl)pyridin-3-yl)-5-methoxyphenyl benzylcarbamate] | > 10000 nM | > 1000 nM | 
19 | O=C(NCC1CCCCC1)Oc1cccc(-c2cncc(-c3ncno3)c2)c1 [Example 204, 3-(5-(1,2,4-oxadiazol-5-yl)pyridin-3-yl)phenyl (cyclohexylmethyl)carbamate] | > 10000 nM | 10 to 100 nM | 
20 | COc1ccc(OC(=O)NC2CCCCCC2)cc1-c1cncc(-c2nnn[nH]2)c1 [Example 255, 3-(5-(1H-tetrazol-5-yl)pyridin-3-yl)-4-methoxyphenyl cycloheptylcarbamate] | > 10000 nM | > 1000 nM | 
21 | Cc1ccc(-c2cncc(-c3ncco3)c2)cc1OC(=O)NC1CCCCC1 [Example 95, 2-methyl-5-(5-(oxazol-2-yl)pyridin-3-yl)phenyl cyclohexylcarbamate] | > 1000 nM | > 1000 nM | 
22 | O=C(NC1CCCCC1)Oc1ccc(F)c(-c2cncc(-c3nnco3)c2)c1 [Example 192, 3-(5-(1,3,4-oxadiazol-2-yl)pyridin-3-yl)-4-fluorophenyl cyclohexylcarbamate] | > 10000 nM | 10 to 100 nM | 
23 | O=C(NCc1ccccc1)Oc1cccc(-c2cc(-c3nnco3)ccn2)c1 [Example 258, 3-(4-(1,3,4-oxadiazol-2-yl)pyridin-2-yl)phenyl benzylcarbamate] | > 10000 nM | 100 to 1000 nM | 
24 | Cc1ccc(-c2cncc(-c3ncco3)c2)cc1OC(=O)NCC1CCCCC1 [Example 93, 2-methyl-5-(5-(oxazol-2-yl)pyridin-3-yl)phenyl (cyclohexylmethyl)carbamate] | 1000 to 10000 nM | > 1000 nM | 
25 | CCCCCCCCNC(=O)Oc1cccc(-c2cncc(-c3nnn[nH]3)c2)c1 [Example 238, 3-(5-(1H-tetrazol-5-yl)pyridin-3-yl)phenyl octylcarbamate] | ~10000 nM | 10 to 100 nM | 
26 | O=C(NCC1CCCCC1)Oc1cccc(-c2cncc(-c3nnco3)c2)c1 [Example 134, 3-(5-(1,3,4-oxadiazol-2-yl)pyridin-3-yl)phenyl (cyclohexylmethyl)carbamate] | > 10000 nM | 10 to 20 nM | 
27 | O=C(NC1CCCCC1)Oc1ccc(O)c(-c2cncc(-c3ncn[nH]3)c2)c1 [Example 230, 3-(5-(1H-1,2,4-triazol-5-yl)pyridin-3-yl)-4-hydroxyphenyl cyclohexyl carbamate] | > 10000 nM | 100 to 1000 nM | 
28 | O=C(Oc1cccc(-c2cncc(-c3nnco3)c2)c1)N1CC2CCCC2C1 (centres unmarked) [Example 149, 3-(5-(1,3,4-oxadiazol-2-yl)pyridin-3-yl)phenyl hexahydrocyclopenta[c]pyrrole-2(1H)-carboxylate] | 1000 to 10000 nM | 10 to 100 nM | 
29 | COC(=O)c1cncc(-c2cccc(OC(=O)NC34CC5CC(CC(C5)C3)C4)c2)c1 [Example 13, methyl 5-(3-((((1s,3s)-adamantan-1-yl)carbamoyl)oxy)phenyl)nicotinate] | > 10000 nM | > 1000 nM | 
